Each block holds one molecule with its values, some of them ahead of it. Residues, ends and D or L forms follow the SMILES beside them.
Assays:
NOD2 LRR [1] = target: T1, NOD2 LRR (Homo sapiens, UniProt Q9HC29); conditions: read-out: Surface KD, NOD2, SPR, previously reported surface KD; cited from earlier work
NLRP1 LRR = target: T2, NLRP1 LRR (Homo sapiens, UniProt Q9C000); test: SPR assay, NLRP1 LRR binding to surface-tethered PG derivatives; conditions: for Decrease in affinity compared to intact MDP (1): NLRP1 LRR, SPR surface KD; for Binding to non-PG derived compound tethered to SPR surface: NLRP1, specificity control (Figure S8)
T2 sequence (Q9C000 791-990): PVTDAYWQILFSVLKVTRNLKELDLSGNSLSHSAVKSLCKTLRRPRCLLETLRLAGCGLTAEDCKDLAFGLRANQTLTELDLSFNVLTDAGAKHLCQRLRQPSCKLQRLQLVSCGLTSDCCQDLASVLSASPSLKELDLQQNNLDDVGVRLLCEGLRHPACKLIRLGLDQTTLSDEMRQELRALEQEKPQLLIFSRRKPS

[2] = test system: NOD2 R877 to alanine mutant; conditions: R877A versus wild-type NOD2; cited from earlier work
NOD2 LRR [3] = target: T1, NOD2 LRR; test: SPR assay, NOD2 LRR binding to surface-tethered PG derivatives; conditions: specificity control (Figure S8)

T1 sequence (Q9HC29 765-1040 limits assumed): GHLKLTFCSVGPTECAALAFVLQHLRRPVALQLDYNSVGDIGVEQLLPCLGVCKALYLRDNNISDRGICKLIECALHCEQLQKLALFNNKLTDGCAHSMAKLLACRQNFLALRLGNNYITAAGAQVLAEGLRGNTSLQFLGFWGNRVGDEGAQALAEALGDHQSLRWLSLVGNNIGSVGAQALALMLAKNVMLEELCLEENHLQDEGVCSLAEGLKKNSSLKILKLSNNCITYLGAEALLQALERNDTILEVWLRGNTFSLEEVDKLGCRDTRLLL

Decrease in affinity compared to intact MDP (1) (NLRP1 LRR): 2 fold
Molecule: C[C@H](N)C(=O)N[C@H](CCC(=O)O)C(N)=O [Compound 3, L-ala D-iso dipeptide] (HELM PEPTIDE1{A.[dE].[am]}$$$$V2.0)
Kd (NOD2 LRR [1]): 428 ± 49 nM

Binding to non-PG derived compound tethered to SPR surface (NLRP1 LRR): did not exhibit binding
Binding to non-PG derived compound tethered to SPR surface (NOD2 LRR [3]): did not exhibit binding
Molecule: C[C@H](N)C(=O)N[C@@H](C)C(=O)N[C@@H](C)C(=O)O [L-alanine tripeptide, reference compound]

Binding to non-PG derived compound tethered to SPR surface (NLRP1 LRR): did not exhibit binding
Binding to non-PG derived compound tethered to SPR surface (NOD2 LRR [3]): did not exhibit binding
Molecule: N[C@H]1C(O)O[C@H](CO)[C@H](O)[C@@H]1O (some centres unmarked) [galactosamine, reference compound]

More lines, now with the values behind:

Molecule: 1-amino MDP [Compound 6]
Kd (NOD2 LRR [1]): 700 ± 100 nM

Molecule: 6 -amino GlcNAc [Compound 2]
Decrease in affinity compared to intact MDP (1) (NLRP1 LRR): 2 fold
Kd (NOD2 LRR [1]): 354 ± 40 nM

Molecule: 6-amino MDP [Compound 1]
Kd (NOD2 LRR [1]): 213 ± 24 nM

Molecule: CC(=O)N[C@H]1C(O)O[C@H](CO)[C@@H](O)[C@@H]1O[C@H](C)C(=O)N[C@@H](C)C(=O)N[C@H](CCC(=O)O)C(N)=O (mixture of isomers) [MDP, muramyl dipeptide]
Decrease in affinity of NOD2 for MDP on mutation of R877 to alanine [2]: 4 fold
